Reference: patent US20210338665A1, “MEDICAL USE OF PROSTACYCLIN RECEPTOR AGONIST” (CHINESE PLA GENERAL HOSPITAL, priority 2018, published 2021)

System: SD rats in a low-pressure low-oxygen environment
Assay: Rat high altitude model in a low-pressure low-oxygen cabin (380 mmHg, simulated altitude of 5,500 meters): cardio-pulmonary function
Type: in vivo
Settings: twice every day for 14 days, compared with the model group; for mean pulmonary arterial pressure (mPAP): P<0.05
Protocol: 40 SD rats (about 200 g, male, clean) are purchased from Beijing Vital River Laboratory Animal Technology Co. Ltd and have the license number of SCXK(Jing)2016-0006. The SD rats are fed in a low-pressure oxygen cabin, and regularly fed with a complete nutritional feed under the conditions of the room temperature of 22 to 25° C. and the humidity of 30% to 50%.
Solvent configuration: 20% of HP-β-CD and 80% of double distilled water, and pH=8.
A blank control group: normal-pressure normal-oxygen feeding
A model group: a low-pressure low-oxygen cabin, and intragastric administration of a solvent
An experimental group A: a low-pressure low-oxygen cabin, and intragastric administration of sc0253 (5 mg/kg) as well as a solvent
An experimental group B: a low-pressure low-oxygen cabin, and intragastric administration of sc0253 (10 mg/kg) as well as a solvent
40 rats are randomly divided into four groups, and each group includes 10 rats. 3 groups are placed into an experiment module, the pressure inside the module is regulated to 380 mmHg, a high altitude environment with an altitude of 5,500 meters is simulated, the experiment module is opened for 1 hour every day so as to add feed and water for animals and carry out corresponding medicine treatment, meanwhile, the environment where the rats are positioned are kept alternate day and night according to a ratio of 12h:12h, and after 14 days, intragastric administration is respectively carried out in which the solvent (the model group), the sc0253 (5 mg/kg) and the solvent (the experimental group A) or the sc0253 (10 mg/kg) and the solvent (the experimental group B) are respectively applied, and the operation is carried out twice every day and continued for 14 days. Rats in the fourth group are placed in the same room to be fed in the normal-pressure normal-oxygen environment (the blank control group).
3% pentobarbital sodium (0.2 mL/100 g) is intraperitoneally injected to anesthetize the rats, and ultrasonic detection is carried out. The following ultrasonic data is recorded: right ventricular ejection fraction (RVEF); and right ventricular fractional shortening (RVFS). Then the anesthetized rats are fixed on an operating table in a supine position mode, tracheotomy is carried out, a breathing machine is connected, thoracotomy is carried out to expose the hearts, a catheter is inserted into each right ventricle, right heart catheterization is carried out, and the right ventricular systolic pressure is recorded. Then each catheter is slowly pushed forwards, and can reach a corresponding pulmonary artery through a corresponding right ventricular outflow tract, the pressure waveform of a monitor is observed, and the mean pulmonary arterial pressure mPAP is recorded. The rats are executed, the hearts are taken out, the atrial tissue and attached fat are removed, left and right ventricles are separated, moisture is sucked up by filter paper, the weights of the right ventricles and the left ventricles are respectively weighed, and (RV/(LV+IS)) is calculated.
All the data is represented by x±s, comparison among the groups is single factor analysis of variance, when P<0.05, it represents that the difference has a statistical significance, and statistical treatment is carried out by adopting an SPSS19.0 software package.

[1] = experimental group B: sc0253 10 mg/kg intragastric, ultrasonic detection, P<0.01

## O=C(O)COCC1(F)CCN(c2cncc(N(c3ccccc3)c3ccc(F)cn3)n2)CC1 [sc0253]
Experimental group A: sc0253 5 mg/kg intragastric
  mean pulmonary arterial pressure (mPAP): obviously reduced
Experimental group B: sc0253 10 mg/kg intragastric, P<0.01
  right ventricular hypertrophy index RV/(LV+OS): obviously reduced
Experimental group B: sc0253 10 mg/kg intragastric
  mean pulmonary arterial pressure (mPAP): obviously reduced
[1]
  right ventricular ejection fraction (RVEF): obviously increased
  right ventricular fractional shortening (RVFS): obviously increased
